The values below come from patent US9422293B2 (priority 2006, dated 2016).

Structures can show the parent of a compound that is named as a salt.

The target in the assay is rat TRPV1 (Rattus norvegicus (Rat), UniProt O35433). The following applies: read-out: Rat IC50.
Chain of rat TRPV1 (O35433 whole entry): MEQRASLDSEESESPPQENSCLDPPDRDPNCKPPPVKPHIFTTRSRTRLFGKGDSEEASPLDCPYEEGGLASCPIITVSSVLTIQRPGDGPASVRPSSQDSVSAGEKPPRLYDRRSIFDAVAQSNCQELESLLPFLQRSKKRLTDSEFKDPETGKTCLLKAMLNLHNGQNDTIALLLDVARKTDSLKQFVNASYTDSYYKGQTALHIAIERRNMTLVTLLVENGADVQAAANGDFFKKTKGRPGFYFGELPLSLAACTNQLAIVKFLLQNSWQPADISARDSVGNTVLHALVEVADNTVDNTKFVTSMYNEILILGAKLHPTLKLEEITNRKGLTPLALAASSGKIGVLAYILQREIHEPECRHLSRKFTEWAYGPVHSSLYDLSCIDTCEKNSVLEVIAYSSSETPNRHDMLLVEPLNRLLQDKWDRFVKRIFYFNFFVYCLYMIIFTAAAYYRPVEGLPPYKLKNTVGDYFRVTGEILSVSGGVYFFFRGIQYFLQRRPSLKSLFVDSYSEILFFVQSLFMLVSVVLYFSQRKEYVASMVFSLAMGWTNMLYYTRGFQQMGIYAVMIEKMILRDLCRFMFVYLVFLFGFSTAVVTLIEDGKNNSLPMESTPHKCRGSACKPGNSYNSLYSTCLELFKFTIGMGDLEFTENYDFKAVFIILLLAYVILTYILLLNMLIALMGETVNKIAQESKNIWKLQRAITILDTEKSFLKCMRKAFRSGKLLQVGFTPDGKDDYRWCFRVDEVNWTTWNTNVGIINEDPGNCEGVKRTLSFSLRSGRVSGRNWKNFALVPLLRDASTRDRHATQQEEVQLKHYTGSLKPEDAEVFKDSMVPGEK

Method: Biological Testing: Functional Assay: Block of Capsaicin-Induced Ca^2+ Influx A. Human Assay
Cells were passaged frequently, every 3-5 days, to avoid overgrowth, depletion of essential medium components, or acidic medium exposure. Cells were passaged using a brief wash in 0.05% trypsin with 1 mM EDTA, followed by dissociation in divalent-free phosphate-buffered saline (Hyclone #SH30028.02). […] The assay buffer was composed of 130 mM NaCl, 2 mM KCl, 2 mM MgCl2, 10 mM HEPES, 5 mM glucose, and either 2 mM or 20 μM CaCl2. On the day of the experiment, the culture medium was replaced with 2 mM calcium assay buffer using an automated plate washer (ELx405; Biotek, VT). […] After loading the cells, the dye solution was replaced with 50 μL/well of 20 μM calcium assay buffer using the ELx405 plate washer. Test compounds (50 μL/well) were added to the plate and incubated for 30 min. […] The IC50 values were determined. […] The contents of the wells were mixed 3 times (40 μL mix volume) immediately after the additions were made. Concentration dependence of block was determined by exposing each well of cells in duplicate rows of a 96 well plate to a serial dilution of test compound. The concentration series usually started at 10 μM with a three-fold serial decrement in concentration. The magnitude of the capsaicin response was determined by measuring the change in fluo3 fluorescence before and 100 seconds after the addition of the agonist. Data were analyzed using a non-linear regression program (Origin; OriginLab, MA). IC50 values shown are the average (mean) of the results obtained.
The assay was performed as described above, using HEK293 cells transfected with rat TRPV1 (rTRPV1/HEK293). […] IC50 values shown are the average (mean) of the results obtained.

With `CSc1nc2c(c(Nc3ccc(C(F)(F)F)cn3)n1)CCN(c1ncccc1C(F)(F)F)CC2` [Example 74B, [2-Methylsulfanyl-7-(3-trifluoromethyl-pyridin-2-yl)-6,7,8,9-tetrahydro-5H-pyrimido[4,5-d]azepin-4-yl]-(5-trifluoromethyl-pyridin-2-yl)-amine trifluoroacetic acid salt], the IC50 came out at 3900 nM. The result for `CC(C)c1nc2c(c(Nc3ccc(C(F)(F)F)cc3)n1)CCN(c1nc3ccccc3nc1C(F)(F)F)CC2` [Example 35, [2-Isopropyl-7-(3-trifluoromethyl-quinoxalin-2-yl)-6,7,8,9-tetrahydro-5H-pyrimido[4,5-d]azepin-4-yl]-(4-trifluoromethyl-phenyl)-amine] reads 2400 nM; that for `CC(C)c1nc2c(c(Nc3ccc4c(c3)N(C)CCC4)n1)CCN(c1ncccc1C(F)(F)F)CC2` [Example 161, [2-Isopropyl-7-(3-trifluoromethyl-pyridin-2-yl)-6,7,8,9-tetrahydro-5H-pyrimido[4,5-d]azepin-4-yl]-(1-methyl-1,2,3,4-tetrahydro-quinolin-7-yl)-amine], 130 nM. Take `Fc1cc(Nc2nc(N3CCCCC3)nc3c2CCN(c2ncccc2C(F)(F)F)CC3)ccc1C(F)(F)F` [Example 157, N-[3-Fluoro-4-(trifluoromethyl)phenyl]-2-piperidin-1-yl-7-[3-(trifluoromethyl)pyridin-2-yl]-6,7,8,9-tetrahydro-5H-pyrimido[4,5-d]azepin-4-amine]: the IC50 turned out to be 70 nM.

For `Cc1cc([N+](=O)[O-])cnc1N1CCc2nc(C(C)C)nc(Nc3ccc(C(F)(F)F)cc3)c2CC1` [Example 87, [2-Isopropyl-7-(3-methyl-5-nitro-pyridin-2-yl)-6,7,8,9-tetrahydro-5H-pyrimido[4,5-d]azepin-4-yl]-(4-trifluoromethyl-phenyl)-amine], the IC50 is 350 nM. Consider `FC(F)(F)c1ccc(Nc2nc(N3CCC3)nc3c2CCN(c2ncccc2C(F)(F)F)CC3)cn1` [Example 217, 2-Azetidin-1-yl-7-[3-(trifluoromethyl)pyridin-2-yl]-N-[6-(trifluoromethyl)pyridin-3-yl]-6,7,8,9-tetrahydro-5H-pyrimido[4,5-d]azepin-4-amine], for which the IC50 was found to be 390 nM. For the compound `FC(F)(F)c1ccc(Nc2nc(C3CC3)nc3c2CCN(c2ncccc2C(F)(F)F)CC3)cc1` [Example 5, [2-Cyclopropyl-7-(3-trifluoromethyl-pyridin-2-yl)-6,7,8,9-tetrahydro-5H-pyrimido[4,5-d]azepin-4-yl]-(4-trifluoromethyl-phenyl)-amine], the IC50 stood at 150 nM.

`FC(F)(F)c1ccc(Nc2nc(Oc3ccccc3)nc3c2CCN(c2ncccc2C(F)(F)F)CC3)cc1` [Example 342, 2-(Phenyloxy)-N-[4-(trifluoromethyl)phenyl]-7-[3-(trifluoromethyl)pyridin-2-yl]-6,7,8,9-tetrahydro-5H-pyrimido[4,5-d]azepin-4-amine trifluoroacetic acid salt]: the IC50 is 60 nM. For `CC(C)c1nc2c(c(Nc3ccc(C#N)cc3)n1)CCN(c1ncccc1C(F)(F)F)CC2` [Example 97, 4-[2-Isopropyl-7-(3-trifluoromethyl-pyridin-2-yl)-6,7,8,9-tetrahydro-5H-pyrimido[4,5-d]azepin-4-ylamino]-benzonitrile], the IC50 stood at 490 nM. Consider `CN(C)c1nc2c(c(Nc3ccc(Cl)c(Cl)c3)n1)CCN(c1ncccc1C(F)(F)F)CC2` [Example 63B, N^4-(3,4-Dichloro-phenyl)-N^2,N^2-dimethyl-7-(3-trifluoromethyl-pyridin-2-yl)-6,7,8,9-tetrahydro-5H-pyrimido[4,5-d]azepine-2,4-diamine trifluoroacetic acid salt], for which the IC50 was found to be 2500 nM. For `FC1(F)CCCN(c2nc3c(c(Nc4ccc(C(F)(F)F)cc4)n2)CCN(c2ncccc2C(F)(F)F)CC3)C1` [Example 238, 2-(3,3-Difluoropiperidin-1-yl)-N-[4-(trifluoromethyl)phenyl]-7-[3-(trifluoromethyl)pyridin-2-yl]-6,7,8,9-tetrahydro-5H-pyrimido[4,5-d]azepin-4-amine trifluoroacetic acid salt], the IC50 was 40 nM.

As for `FC(F)(F)c1ccc(Nc2nc(N3CCN(Cc4ccccc4)CC3)nc3c2CCN(c2ncccc2C(F)(F)F)CC3)cc1` [Example 102, [2-(4-Benzyl-piperazin-1-yl)-7-(3-trifluoromethyl-pyridin-2-yl)-6,7,8,9-tetrahydro-5H-pyrimido[4,5-d]azepin-4-yl]-(4-trifluoromethyl-phenyl)-amine], the IC50 amounted to 170 nM. Consider `FC(F)(F)c1cnc(Nc2nc(N3CCCCC3)nc3c2CCN(c2ncccc2C(F)(F)F)CC3)cn1` [Example 192, [2-Piperidin-1-yl-7-(3-trifluoromethyl-pyridin-2-yl)-6,7,8,9-tetrahydro-5H-pyrimido[4,5-d]azepin-4-yl]-(5-trifluoromethyl-pyrazin-2-yl)-amine], for which the IC50 is 70 nM. With `CC(=O)c1ccc(Nc2nc(C(C)C)nc3c2CCN(c2ncccc2C(F)(F)F)CC3)cc1` [Example 96, 1-{4-[2-Isopropyl-7-(3-trifluoromethyl-pyridin-2-yl)-6,7,8,9-tetrahydro-5H-pyrimido[4,5-d]azepin-4-ylamino]-phenyl}-ethanone] the figure was 340 nM; with `CC(C)c1nc2c(c(Nc3ccc(C(F)(F)F)cc3)n1)CCN(c1ncccc1NS(C)(=O)=O)CC2` [Example 281, N-{2-[2-(1-Methylethyl)-4-{[4-(trifluoromethyl)phenyl]amino}-5,6,8,9-tetrahydro-7H-pyrimido[4,5-d]azepin-7-yl]pyridin-3-yl}methanesulfonamide], 2620 nM. Consider `CC(C)c1nc2c(c(Nc3ccc(C(F)(F)F)nc3)n1)CCN(c1ncccc1C(F)(F)F)CC2` [Example 23, [2-Isopropyl-7-(3-trifluoromethyl-pyridin-2-yl)-6,7,8,9-tetrahydro-5H-pyrimido[4,5-d]azepin-4-yl]-(6-trifluoromethyl-pyridin-3-yl)-amine], for which the IC50 was 310 nM. With `CN(Cc1ccco1)c1nc2c(c(Nc3ccc(C(F)(F)F)cc3)n1)CCN(c1ncccc1C(F)(F)F)CC2` [Example 216, N^2-(Furan-2-ylmethyl)-N^2-methyl-N^4-[4-(trifluoromethyl)phenyl]-7-[3-(trifluoromethyl)pyridin-2-yl]-6,7,8,9-tetrahydro-5H-pyrimido[4,5-d]azepine-2,4-diamine trifluoroacetic acid salt] the figure was 50 nM.

For the compound `CC(C)c1nc2c(c(Nc3ccc(C(=O)N(C)C)cc3)n1)CCN(c1ncccc1C(F)(F)F)CC2` [Example 127, N,N-Dimethyl-4-({2-(1-methylethyl)-7-[3-(trifluoromethyl)pyridin-2-yl]-6,7,8,9-tetrahydro-5H-pyrimido[4,5-d]azepin-4-yl}amino)benzamide], the IC50 came to 19200 nM. With `FC(F)(F)c1ccc(Nc2nc(N3CCNCC3)nc3c2CCN(c2ncccc2C(F)(F)F)CC3)cc1` [Example 99B, [2-Piperazin-1-yl-7-(3-trifluoromethyl-pyridin-2-yl)-6,7,8,9-tetrahydro-5H-pyrimido[4,5-d]azepin-4-yl]-(4-trifluoromethyl-phenyl)-amine trifluoroacetic acid salt] the figure was 7200 nM.

As usually defined, the IC50 is the concentration that gives 50% inhibition.
